Data set [1] has as its system MDA-MB-231. As to the kind of experiment: Antiproliferative activity against human MDA-MB-231 cells assessed as inhibition of cell proliferation incubated for 48 hrs by CCK-8 assay. In kind it is functional, cell-based. To be noted: MDA-MB-231, 48 h. For orientation: Tetrazolium assays rely on reduction of a dye to a coloured formazan, in cell work by metabolically active cells.

Another data set has as its system A549. As to the kind of experiment: Antiproliferative activity against human A549 cells assessed as inhibition of cell proliferation incubated for 48 hrs by CCK-8 assay. Particulars: A549, 48 h. It is filed as functional, cell-based.
For a further data set, the system named is HepG2. As to the kind of experiment: Antiproliferative activity against human HepG2 cells assessed as inhibition of cell proliferation incubated for 48 hrs by CCK-8 assay. It is filed as functional, cell-based. To be noted: HepG2, 48 h.
For data set [2], the system named is MDA-MB-231. As to the kind of experiment: Induction of apoptosis in human MDA-MB-231 cells assessed as early apoptotic cells at 1 uM incubated for 24 hrs by Annexin-V/PI staining based flow cytometric analysis (reference value: 2.69%). It is filed as functional. (In general: A flow cytometer gives signals particle by particle.)
The test system of data set [3] is MDA-MB-231. The data set is described as follows: Induction of cell cycle arrest in human MDA-MB-231 cells assessed as accumulation of cells at G0/G1 phase at 1 uM incubated for 24 hrs by PI staining based flow cytometric analysis (reference value: 57.31%). It is filed as functional.
Data set [4] has as its system MDA-MB-231. As to the kind of experiment: Induction of apoptosis in human MDA-MB-231 cells assessed as viable cells at 1 uM incubated for 24 hrs by Annexin-V/PI staining based flow cytometric analysis (reference value: 93.37%). It is filed as functional. Particulars: read-out: Activity.
Data set [5] deals with MDA-MB-231. As to the kind of experiment: Induction of apoptosis in human MDA-MB-231 cells assessed as necrotic cells at 1 uM incubated for 24 hrs by Annexin-V/PI staining based flow cytometric analysis (reference value: 0.71%). In kind it is functional.
The subject of data set [6] is MDA-MB-231. As to the kind of experiment: Induction of cell cycle arrest in human MDA-MB-231 cells assessed as accumulation of cells at S phase at 1 uM incubated for 24 hrs by PI staining based flow cytometric analysis (reference value: 8.71%). It is filed as functional.
Data set [7] relates to MDA-MB-231. As to the kind of experiment: Induction of apoptosis in human MDA-MB-231 cells assessed as late apoptotic cells at 1 uM incubated for 24 hrs by Annexin-V/PI staining based flow cytometric analysis (reference value: 3.24%). It is filed as functional.
For data set [8], the system named is MDA-MB-231. The data set is described as follows: Induction of cell cycle arrest in human MDA-MB-231 cells assessed as accumulation of cells at G2/M phase at 1 uM incubated for 24 hrs by PI staining based flow cytometric analysis (reference value: 33.98%). It is filed as functional.
The nature of data set [9]: Solubility of compound in 0.1 M HCL. In kind it is physicochemical.
Data set [10] in a line: Solubility of compound in water. In kind it is physicochemical.
Data set [11] can be described thus: Toxicity in female Balb/c mouse implanted with mouse 4T1 cells assessed as appearance of spleen wrinkling at 10 mg/kg, ip administered once every 2 days for 14 days. It is filed as organism-based. Particulars: in vivo, 48 h, time 2 day.
Data set [12] in a line: Toxicity in female Balb/c mouse implanted with mouse 4T1 cells assessed as appearance of tumor metastasis in lung at 10 mg/kg, ip administered once every 2 days for 14 days by H and E staining based analysis. In kind it is organism-based. Particulars: in vivo, 336 h, time 14 day.
A short description of data set [13]: Toxicity in female Balb/c mouse implanted with mouse 4T1 cells assessed as appearance of tumor metastasis in spleen at 10 mg/kg, ip administered once every 2 days for 14 days by H and E staining based analysis. In kind it is organism-based. Particulars: in vivo, 336 h, time 14 day.
A short description of data set [14]: Toxicity in female Balb/c mouse implanted with mouse 4T1 cells assessed as appearance of tumor metastasis in kidney at 10 mg/kg, ip administered once every 2 days for 14 days by H and E staining based analysis. To be noted: in vivo, 336 h, time 14 day. In kind it is organism-based.
Data set [15] can be described thus: Toxicity in female Balb/c mouse implanted with mouse 4T1 cells assessed as appearance of irregular necrotic foci in tumor area at 10 mg/kg, ip administered once every 2 days for 14 days by H and E staining based analysis. In kind it is organism-based. To be noted: in vivo, 336 h, time 14 day.
Data set [16] is described as follows: Toxicity in female Balb/c mouse implanted with mouse 4T1 cells assessed as appearance of tumor metastasis in liver at 10 mg/kg, ip administered once every 2 days for 14 days by H and E staining based analysis. It is filed as organism-based. Particulars: in vivo, 336 h, time 14 day.
A short description of data set [17]: Toxicity in female Balb/c mouse implanted with mouse 4T1 cells assessed as appearance of infiltered tumor cells in adipose tissue at 10 mg/kg, ip administered once every 2 days for 14 days by H and E staining based analysis. To be noted: in vivo, 336 h, time 14 day. It is filed as organism-based.
The nature of data set [18]: Toxicity in female Balb/c mouse implanted with mouse 4T1 cells assessed as change in body weight at 10 mg/kg, ip administered every 2 days. To be noted: in vivo, 48 h. In kind it is organism-based.

Values after ≈ are worked out from the molar mass of the structure shown. Structures can show the parent of a compound that is named as a salt. A value given as a limit tells only on which side of the number the result lay.

`COC(=O)/C=C/C(=O)OCCCN1CCN(C2=C(F)C(=O)C(c3c(C)[nH]c4ccccc34)=C(N3CCN(CCCOC(=O)/C=C/C(=O)OC)CC3)C2=O)CC1`: the IC50 with MDA-MB-231 [1] is 13.5 µM; in the data set with A549, more than 100 µM; in the data set with HepG2 it was 61.4 µM.

Regarding `COc1ccc(/C=C\c2cc(OC)c(OC)c(OC)c2)cc1O` [COMBRETASTATIN A4], the Activity in the data set with MDA-MB-231 [2] is recorded as 10.22%; in the data set on MDA-MB-231 [3], 39.37%; in the data set with MDA-MB-231 [5] it was 1.55%; in the data set with MDA-MB-231 [6], 9.19%; in the data set on MDA-MB-231 [7] it was 8.43%; in the data set on MDA-MB-231 [8], 55.89%. For the same molecule, the viability at 1 µM in the data set on MDA-MB-231 [4] is 79.8%.

Turning to `Cc1[nH]c2ccccc2c1C1=C(F)C(=O)C(c2c(C)[nH]c3ccccc23)=C(F)C1=O`, the figures for the IC50 with MDA-MB-231 [1], with A549 and in the data set with HepG2 were 10.8 µM, 15.7 µM and 11.3 µM, respectively.

`Cc1[nH]c2ccccc2c1C1=C(F)C(=O)C(F)=C(NC2CC2)C1=O`: the IC50 worked out at 7.96 µM in the data set on MDA-MB-231 [1], 4.46 µM in the data set on A549 and 10.5 µM in the data set with HepG2.

In the case of `Cc1[nH]c2ccccc2c1C1=C(Cl)C(=O)C(Cl)=C(N2CCOCC2)C1=O`, the solubility in [9] turned out to be 6 µg/mL (≈ 15.3 µM); in data set [10], 9 µg/mL (≈ 23 µM).

For `COC(=O)/C=C/OCCNC1=C(F)C(=O)C(c2c(C)[nH]c3ccccc23)=C(NCCOC(=O)/C=C/C(=O)OC)C1=O`, the IC50 was found to be 12 µM with MDA-MB-231 [1], 7.02 µM in the data set on A549 and 4.44 µM with HepG2.

For the molecule `Cc1[nH]c2ccccc2c1C1=C(N2CCOCC2)C(=O)C(c2c(C)[nH]c3ccccc23)=C(N2CCOCC2)C1=O`, the IC50 in the data set with MDA-MB-231 [1] is more than 100 µM; in the data set on A549, 10.8 µM; in the data set on HepG2, 11.3 µM.

For the molecule `C#CCNC1=C(F)C(=O)C(NCC#C)=C(c2c(C)[nH]c3ccccc23)C1=O`, the figures for the IC50 with MDA-MB-231 [1], in the data set with A549 and with HepG2 were 15.5 µM, 5.21 µM and 14.2 µM, respectively.

`COC(=O)/C=C/C(=O)OCCNC1=C(F)C(=O)C(c2c(C)[nH]c3ccccc23)=C(F)C1=O`: the IC50 in the data set on MDA-MB-231 [1] was determined as 6.47 µM; in the data set with A549, 6.31 µM; in the data set with HepG2 it was 25 µM.

In the case of `Cc1[nH]c2ccccc2c1C1=C(F)C(=O)C(c2c(C)[nH]c3ccccc23)=C(N2CCOCC2)C1=O`, the IC50 in the data set on MDA-MB-231 [1] is 8.9 µM; in the data set on A549, 10.2 µM; with HepG2 it was 12.4 µM.

With `Cc1[nH]c2ccccc2c1C1=C(NC2CC2)C(=O)C(F)=C(NC2CC2)C1=O`, the IC50 was determined as 5.49 µM with MDA-MB-231 [1], 4.93 µM with A549 and 4.19 µM in the data set on HepG2.

For `Cc1[nH]c2ccccc2c1C1=C(F)C(=O)C(F)=C(F)C1=O`, the IC50 was found to be 8.57 µM in the data set with MDA-MB-231 [1], 14.2 µM with A549 and 12.4 µM with HepG2.

As to `Cc1[nH]c2ccccc2c1C1=C(F)C(=O)C(N2CCOCC2)=C(F)C1=O`, the IC50 came out at 4.27 µM in the data set with MDA-MB-231 [1], 14.2 µM in the data set on A549 and 7.78 µM with HepG2.

As to `Cc1[nH]c2ccccc2c1C1=C(F)C(=O)C(F)=C(NCCNC(=O)OC(C)(C)C)C1=O`, the IC50 in the data set with MDA-MB-231 [1] worked out at 7.18 µM; with A549, 4.76 µM; in the data set on HepG2, 4.91 µM.

As to `Cc1[nH]c2ccccc2c1C1=C(N2CCN(C=O)CC2)C(=O)C(F)=C(N2CCN(C=O)CC2)C1=O`, the IC50 with MDA-MB-231 [1] was 7.4 µM; in the data set on A549 it was 12.1 µM; in the data set on HepG2 it was 8.13 µM.

Take `Cc1[nH]c2ccccc2c1C1=C(NCCNC(=O)OC(C)(C)C)C(=O)C(F)=C(NCCNC(=O)OC(C)(C)C)C1=O`: the figures for the half-maximal inhibitory concentration (IC50) in the data set with MDA-MB-231 [1], in the data set with A549 and in the data set on HepG2 were 10.2 µM, 13.8 µM and 13.1 µM, respectively.

Take `Cc1[nH]c2ccccc2c1C1=C(F)C(=O)C(F)=C(N2CCCCC2)C1=O`: the results for the IC50 in the data set on MDA-MB-231 [1], with A549 and with HepG2 were 8.26 µM, 32.9 µM and 14.5 µM, respectively.

As for `C#CCNC1=C(F)C(=O)C(F)=C(c2c(C)[nH]c3ccccc23)C1=O`, the IC50 with MDA-MB-231 [1] is 6.14 µM; in the data set with A549 it was more than 100 µM; in the data set with HepG2 it was 6.43 µM.

On to `Cc1[nH]c2ccccc2c1C1=C(N2CCCCC2)C(=O)C(F)=C(N2CCCCC2)C1=O`, for which the IC50 is 4.41 µM with MDA-MB-231 [1], 6.8 µM in the data set with A549 and 4.22 µM in the data set on HepG2.

On to `COc1cccc2c1C(=O)c1c(O)c3c(c(O)c1C2=O)C[C@@](O)(C(=O)CO)C[C@@H]3O[C@H]1C[C@H](N)[C@H](O)[C@H](C)O1` [DOXORUBICIN HYDROCHLORIDE], for which the Activity entry in data set [11], in [12], in [13], in data set [14], in data set [15] and in data set [16] was “Toxic” each time. The Activity result in data set [17] and in data set [18] was “Toxic” throughout. Also, the IC50 in the data set with MDA-MB-231 [1] was found to be 2.34 µM; in the data set with A549, 0.3 µM.

Consider `COC(=O)/C=C/C(=O)OCCCN1CCN(C2=C(F)C(=O)C(F)=C(c3c(C)[nH]c4ccccc34)C2=O)CC1`, for which the figures for the IC50 with MDA-MB-231 [1], in the data set on A549 and in the data set on HepG2 were 6.97 µM, 6.79 µM and 4.6 µM, respectively.

With `Cc1[nH]c2ccccc2c1C1=C(F)C(=O)C(F)=C(N2CCNCC2)C1=O`, the IC50 stood at 4.65 µM in the data set with MDA-MB-231 [1], 12.5 µM with A549 and 8.15 µM in the data set on HepG2.

As to `C#CCNC1=C(F)C(=O)C(c2c(C)[nH]c3ccccc23)=C(F)C1=O`, the IC50 in the data set on MDA-MB-231 [1] was 7.82 µM; in the data set with A549 it was more than 100 µM; in the data set on HepG2 it was 50.6 µM.

As to `Cc1[nH]c2ccccc2c1C1=C(N2CCOCC2)C(=O)C(F)=C(N2CCOCC2)C1=O`, the 50% inhibitory concentration (IC50) with MDA-MB-231 [1] is 8.16 µM; in the data set on A549, 15.4 µM; with HepG2 it was 16.1 µM.

For `Cc1[nH]c2ccccc2c1C1=C(F)C(=O)C(F)=C(N2CCN(C=O)CC2)C1=O`, the figures for the IC50 in the data set with MDA-MB-231 [1], in the data set with A549 and in the data set on HepG2 were 8 µM, 53.1 µM and 5.43 µM, respectively.

Usually IC50 stands for the point on the concentration scale where inhibition reaches its midpoint. Broadly, the solubility is the dissolved amount per volume that the medium holds. A high value points to much dissolved substance.

(Values after ChEMBL document CHEMBL6114979, “Discovery of 3-indolylbenzoquinone derivatives with therapeutic potential for breast cancer” (Bioorg Med Chem, 2025).)
